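All cell lines were grown in 96-well plates and treated with compound for 48 hours. GI50 is the concentration that inhibits growth by half. TGI denotes the concentration required for complete inhibition of growth.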
Assays:
Test in all cases: NCI-60 cell line screen, 48 h
[1] = test system: OVCAR-3 ovarian
[2] = test system: NCI/ADR-RES ovarian
[3] = test system: SF-268 CNS
[4] = test system: ACHN renal
[5] = test system: CAKI-1 renal
[6] = test system: UACC-257 melanoma
[7] = test system: SK-MEL-28 melanoma
[8] = test system: T-47D breast
[9] = test system: OVCAR-5 ovarian
[10] = test system: SR leukemia

| Structure (SMILES) | GI50 [1] [µM] | TGI [1] [µM] | GI50 [2] [µM] | TGI [2] [µM] | GI50 [3] [µM] | TGI [3] [µM] | GI50 [4] [µM] | TGI [4] [µM] | GI50 [5] [µM] | TGI [5] [µM] | GI50 [6] [µM] | TGI [6] [µM] | GI50 [7] [µM] | TGI [7] [µM] | GI50 [8] [µM] | TGI [8] [µM] | GI50 [9] [µM] | TGI [9] [µM] | GI50 [10] [µM] | TGI [10] [µM] |
| --- | --- | --- | --- | --- | --- | --- | --- | --- | --- | --- | --- | --- | --- | --- | --- | --- | --- | --- | --- | --- |
| C[C@@H]1CN(Cc2ccc(/C=C/c3n[nH]c4ccc5nc(-c6cn[nH]c6C(F)(F)F)c6c(c5c34)CCCC6)cc2)C[C@H](C)O1 | 2.96 | 14.6 | 4.76 | 19.9 | 4.21 | 19.1 | 2.57 | 13.7 | 2.29 | 11.5 | 13.3 | 30.9 | 7.11 | 21.2 | 6.66 | 26.4 | 4.06 | 16.2 |  |  |
| NNC(=O)CC(=O)Nc1ccccc1F |  | > 100 |  |  |  | > 100 |  | > 100 |  | > 100 |  | > 100 |  | > 100 |  |  |  | > 100 |  |  |
| CC(=O)OCCC/C(=C\c1ccc2ccccc2c1)[N+](=O)[O-] | 1.52 | 3.08 | 2.69 | 8.67 | 1.67 | 3.43 | 1.89 | 3.68 | 1.5 | 3.28 | 1.81 | 3.54 | 1.26 | 2.84 |  |  | 1.75 | 3.42 | 1.67 | > 100 |
| Cn1c(=O)c(C(c2ccccc2)c2c(O)c3ccccc3n(C)c2=O)c(O)c2ccccc21 |  | > 100 |  |  |  | > 100 |  | > 100 |  | > 100 |  | > 100 |  | > 100 |  |  |  | 93.1 |  | > 100 |
| CC1SC2=NC3=C(c4ccccc4C3=O)C(c3ccc(Br)cc3)N2C1=O (configuration not stated) |  | > 100 |  |  |  | > 100 |  | > 100 |  | > 100 |  | > 100 |  | > 100 |  |  |  | > 100 |  |  |
| COc1cc(Nc2ncc3c(n2)-c2ccc(Cl)cc2C(c2c(F)cccc2OC)=NC3)ccc1C(=O)O | 7.33 | 34.4 | 1.38 | > 100 | 9.51 | 92.8 | 2.34 | 55.1 | 1.66 | 29.3 | 18.2 | > 92.5 | 13.2 | > 92 | 12.1 | > 91.2 | 7.54 | > 77.7 |  |  |
| COc1ccc(/C=C/c2nc(N3CCOCC3)c3cc(F)c(F)cc3n2)cc1OC | 6.08 | > 100 | 4.09 | > 100 | 9.85 | > 100 | 4.35 | > 100 | 3.23 | > 100 | 4.41 | > 100 | 5.53 | > 100 | 1.49 | 9.72 | 6.54 | > 100 |  |  |
| CC1=C(C(=O)Nc2ccccc2C)C(c2ccc(N(C)C)cc2)C(C(=O)Nc2ccccc2C)=C(C)N1 |  | > 100 |  |  |  | > 100 |  | > 100 |  |  |  | > 100 |  | > 100 |  |  |  | > 100 |  |  |
| COC1=NN2C(OC)(c3ccccc3)c3c(-c4ccccc4)sc(-c4ccccc4)c3C2(c2ccccc2)S1 (configuration not stated) |  | > 10 |  |  |  | > 100 |  | > 100 |  | > 100 |  | > 100 |  | > 100 |  |  |  | > 100 |  | > 100 |
| COc1ccc(-c2cc(-c3ccccc3)c(C#N)c(=O)[nH]2)cc1 |  | > 100 |  |  |  | > 100 |  | > 100 |  |  |  | > 100 |  | > 100 |  |  |  | > 100 |  | > 100 |
| Cc1c(N2C(=O)/C(=C\c3ccc(O)cc3)N=C2c2ccccc2)c(=O)n(-c2ccccc2)n1C | > 100 | > 100 | > 100 | > 100 | > 100 | > 100 | > 100 | > 100 | > 100 | > 100 | > 100 | > 100 | > 100 | > 100 | > 100 | > 100 | > 100 | > 100 |  |  |
| COc1cc(C)c(C(=O)/C=C/c2cc(OC)c(O)c(OC)c2)cc1O |  | 91.1 |  |  |  | 78.4 |  | > 100 |  | > 100 |  | > 100 |  | 41.4 |  |  |  | 69.9 |  |  |
| COc1cc(C2c3cc4c(cc3C3OC(=O)C2C3CO)OCO4)cc(OC)c1OC (configuration not stated) |  |  | 0.0181 | 0.0607 | 0.0395 | > 100 | 0.0344 | > 100 | 0.0511 | > 100 |  | > 100 | 8.68 | > 100 | 0.0181 | > 100 | 0.0539 | > 100 |  |  |
| CC(C)O/C=C1\C(=O)C2(SCCS2)[C@H]2CCCC[C@@H]12 |  |  |  |  |  | > 100 |  | > 100 |  | > 100 |  | > 100 |  | > 100 |  |  |  |  |  | > 100 |
| COC(=O)C1CC2(c3ccc(C)cc3)C(c3ccc(C)cc3)=C(c3ccc(C)cc3)C1(c1ccc(C)cc1)S2=O (configuration not stated) | > 100 | > 100 | 85.5 | > 100 | > 100 | > 100 | > 100 | > 100 | > 100 | > 100 | > 100 | > 100 | > 100 | > 100 | 60.4 | > 100 | > 100 | > 100 |  |  |
| CCC[CH2][Sn]1([CH2]CCC)[O]C(=O)C[S]1 | 1.57 | 3.03 |  |  | 1.67 | 4.83 | 1.64 | 3.04 | 0.759 | 3.47 | 1.4 | 3.27 | 1.35 | 2.69 |  |  | 2.09 | 5.27 | 1.13 | 7.09 |
| O=C1Cc2ccccc2N1/N=C\c1ccc(O)cc1 |  | > 100 |  |  |  | > 100 |  | > 100 |  | > 100 |  | > 100 |  | > 100 |  |  |  | > 100 |  |  |

Source: PubChem BioAssay (NCI)
